Reference: patent US20090012326A1 (priority 2006, published 2009)
“Also recorded” adds a separate entry of the source.

Key:
[1] = system: Wistar rats intoxicated with PQ
Procedure: The study was performed using (n=84) adults male Wistar rats obtained from Charles River S. A. (Barcelona, Spain), with a mean weight of 250±10 g. Animals were randomly distributed in number of two per polypropylene cages with a stainless steel net at the top and wood chips at the screen bottom, in a air-conditioned room (alternate cycles of 12 hours light and darkness, room temperature 22±2° C. and with a relative humidity of 50-60%) at least one week (quarantine) before starting the experience in order to acclimate to their surrounding conditions. Animals were allowed access to tap water and rat chow ad libitum during the quarantine period. Housing and experimental treatment of animals were in accordance with National Institutes of Health guidelines (ILAR 1996). The experiments complied with the current laws of Portugal.
(§1) The biochemical and histological studies were carried out with 60 animals, randomly distributed to ten groups. Each animal was individually housed during the experimental period in a polypropylene cage with a stainless steel net at the top and wood chips at the screen bottom. Tap water and rat chow were given ad libitum during the entire experiment. […] Each group was treated as follows: (doses were given per Kg/body weight):
For the evaluation of survival rate, 24 animals were randomly divided into four groups (control, NaSAL, PQ and PQ+NaSAL) of six animals each. […]

[2] = system: lung tissue of Wistar rats; conditions: rat, in vivo
Procedure: as §1
(I) Control group, n=6: animals treated with 0.9% NaCl. Animals were treated with one more administration of 0.9% NaCl two hours later and sacrificed 24 hours after the second injection;
(II) NaSAL group, n=18: animals treated with 0.9% NaCl. Animals were treated with one administration of NaSAL (200 mg/kg) two hours later and sacrificed 24 hours (n=6, NaSAL 24 h group), 48 hours (n=6, NaSAL 48 h group) and 96 hours (n=6, NaSAL 96 h group) after the second injection;
(III) PQ group, n=18: animals intoxicated with PQ (25 mg/kg). Animals were treated with one more administration of 0.9% NaCl two hours later and sacrificed 24 hours (n=6, PQ 24 h group), 48 hours (n=6, PQ 48 h group) and 96 hours (n=6, PQ 96 h group) after the second injection;
(IV) PQ+NaSAL group, n=18: animals intoxicated with PQ (25 mg/kg). Two hours later, animals were treated with NaSAL (200 mg/kg) and sacrificed 24 hours (n=6, PQ+NaSAL 24 h group), 48 hours (n=6, PQ+NaSAL 48 h group) and 96 hours (n=6, PQ+NaSAL 96 h group) after the second injection.
Two animals of each group were assigned to histological analysis. Lung samples were subjected to routine procedures for light microscopy (LM) and transmission electron microscopy (TEM) analysis. With the animals under anaesthesia, lung fixation was initiated in situ by perfusion through pulmonary artery, with 2.5% glutaraldehyde in 0.2 M sodium cacodylate buffer (pH 7.2-7.4) during 3 min. Subsequently, lungs were excised and sectioned into approximately 1 mm^3 cubic pieces. After two washing steps, of 30 minutes each with buffer solution, the specimens were dehydrated in graded alcohol for 2 hours, and then embedded in Epon resin. […]

[3] = cited from earlier work

Structure (SMILES): O=C([O-])c1ccccc1O.[Na+] [sodium salicylate, 2-hydroxybenzoic acid sodium salt]
- survival ([1]; PQ 25 mg/Kg i.p., sodium salicylate 200 mg/Kg i.p. two hours after PQ, 30 days after PQ): 100%

Structure (SMILES): C[n+]1ccc(-c2cc[n+](C)cc2)cc1.[Cl-].[Cl-] [paraquat, 1,1′-dimethyl-4,4′-bipyridinium dichloride]
- lung structure (light and electron micrographs) [2]: a marked vascular congestion and a notorious generalized alveolar collapse; also recorded: areas of necrosis of the alveolar wall and macrophages, cellular debris and inflammatory infiltrate within the alveolar space; also recorded: an intense vascular congestion as well as the presence of cellular debris and phagocytes within the alveolar space
- lethality ([1]; intraperitoneal PQ dose, absence of treatment, at the end of 6 days): 100%

Structure (SMILES): CC(=O)Oc1ccccc1C(=O)O [acetylsalicylic acid]
- share of the total plasma salicylate in the acetylated form ([3]; 30 minutes after a dose of 0.65 g): 27%
- plasma half-life ([3]; in vivo): about 15 min
